Literature values as cited in paper PMC9540525 (Cancer, 2022).

Assays:
[1] = phase 1 dose-escalation study in R/R SCLC; cited from earlier work
[2] = phase 1 dose-escalation study in R/R SCLC; cited from earlier work; remark: listed apart in the source
[3] = first-in-human study; cited from earlier work

| SMILES | pharmacokinetic properties [1] | rate of AEs [2] | toxicities [3] |
| --- | --- | --- | --- |
| O=C(O)c1ccc(CN2CCC(CN[C@@H]3C[C@H]3c3ccccc3)CC2)cc1 [GSK2879552] | favorable pharmacokinetic properties were demonstrated | the rate of AEs, especially serious AEs, was high | – |
| N[C@H]1CC[C@H](N[C@@H]2C[C@H]2c2ccccc2)CC1 [iadademstat] | – | – | caused toxicities, including thrombocytopenia, anemia, and febrile neutropenia, as well as deaths possibly related to iadademstat |
